Measurements published in article PMC12388504, “Antiparasitic Effect of Polyphenols and Terpenes from Natural Products Against Trypanosoma cruzi and Leishmania mexicana” (Metabolites, 2025).
Where two headings read alike, the source gives them in different places.

Columns and labels:
T. cruzi = conditions: cited from earlier work
[1] = test system: T. cruzi epimastigotes NINOA strain; assay: Anti-Trypanosoma cruzi activity, epimastigotes NINOA strain (MTT); assay type: cell-based; conditions: for IC50: 48 h, read-out: T. cruzi IC50 NINOA
Description: (§1) Epimastigotes from A1 and the NINOA strains were used to evaluate the trypanocidal activity. Both strains were maintained in liver infusion tryptose (LIT) medium, supplemented with 10% heat-inactivated FBS and 100 U/mL of penicillin plus 100 μg/mL of streptomycin. They were preserved by transferring 1 × 10^6 parasites/mL into a new culture medium every week. […] All compounds were initially prepared at 10 mg/mL, using dimethyl sulfoxide (DMSO) 0.2% as diluent. […] T. cruzi epimastigotes (1 × 10^6/well) were cultured in 96-well microliter plates and incubated for 48 h at 28 °C with the drugs at different concentrations in a final volume of 200 μL. DMSO 0.2% was included as a negative control. […] All assays were carried out in triplicate. The IC50 values were determined by Probit analysis.

[2] = test system: T. cruzi epimastigotes A1 strain; assay: Anti-Trypanosoma cruzi activity, epimastigotes A1 strain (MTT); assay type: cell-based; conditions: for IC50: 48 h
Description: as §1

[3] = Cytotoxic analysis against J774.2 macrophages (MTT); conditions: mouse
Description: (§2) The assay was performed on mouse macrophages from the J774.2 cell line that were cultured in RPMI medium supplemented with 10% SFB, […] penicillin, […] streptomycin, and glutamine (2 mM) at 37 °C and in a 5% CO2 atmosphere. The medium was replaced at 2–3-day intervals. […] Cells in the presence of the maximum concentration of DMSO (0.2%) were included as a negative control; the metabolic activity of the cells was determined following the MTT method. The percentage of cell viability was calculated, and the half-maximal cytotoxic concentration (CC50) was determined by Probit analysis. Three independent assays were performed in triplicate each.

[4] = test system: L. mexicana promastigotes FCQEPS native isolate; assay: Anti-Leishmania mexicana activity, promastigotes FCQEPS native isolate (MTT); assay type: cell-based; conditions: 48 h, read-out: L. mexicana IC50 FCQEPS
Description: (§3) The IC50 was determined using the Probit statistical tool. Each sample was assayed in triplicate in three independent experiments.

[5] = test system: L. mexicana promastigotes MNYC/BZ/62/M379 (M379) strain; assay: Anti-Leishmania mexicana activity, promastigotes M379 reference strain (MTT); assay type: cell-based; conditions: for IC50: 48 h, read-out: L. mexicana IC50 M379
Description: as §3

[6] = test system: J774.2 macrophage cell line; assay: Cytotoxic analysis against J774.2 macrophages (MTT); conditions: for cytotoxicity (in words): J774.2 macrophages
Description: as §2

[7] = test system: Tulahuén strain of T. cruzi; parameters: method as in PMID 35698116; conditions: in words; cited from earlier work
[8] = Trypanosoma cruzi, epimastigotes, NINOA strain, MTT
[9] = Trypanosoma cruzi, epimastigotes, A1 strain, MTT, read-out: T. cruzi IC50 A1
[10] = Leishmania mexicana, promastigotes, FCQEPS native isolate, MTT
[11] = Leishmania mexicana, promastigotes, M379 strain, MTT
[12] = promastigotes, FCQEPS native isolate, MTT
[13] = Trypanosoma cruzi, read-out: T. cruzi IC50 A1, epimastigotes, A1 strain, 48 h, MTT

Structure (SMILES) | IC50 [1, 8] [µM] | IC50 [2, 9] [µM] | IC50 [4, 10] [µM] | IC50 [5, 11] [µM] | CC50 at 48 h ([3]; J774.2 macrophage cells) [µM] | also measured
CC1CCC(C(C)C)C(O)C1 (racemic) [dl-menthol] |  |  |  |  |  | IC50 (T. cruzi; dl-menthol): 173 µM
O=C(Cn1ccnc1[N+](=O)[O-])NCc1ccccc1 [Bzn, Benznidazole, reference compound] | 39.08 ± 0.1 | 30.3 ± 0.03 |  |  |  | 
OCc1ccccc1 [Compound 1, benzyl alcohol] | > 200 | 62.28 ± 0.2 | 104 ± 0.3 | > 200 | 26.5 ± 2.1 | 
Cc1ccc(CO)cc1 [Compound 2, 4-methylbenzyl alcohol] | 51.85 ± 0.01 | 50.4 ± 1.8 | > 200 | > 200 | > 200 | 
OCc1ccc2c(c1)OCO2 [Compound 6, piperonyl alcohol] |  |  |  |  |  | CC50 at 48 h [3]: 62.2 ± 3.2 µM; IC50 ([1]; Trypanosoma cruzi): > 200 µM; IC50 ([4]; Leishmania mexicana): 49.11 ± 0.1 µM; IC50 [2, 13]: > 200 µM; IC50 ([5]; Leishmania mexicana): 23.61 ± 0.2 µM
CC(C)=CCC/C(C)=C/CO [Compound 12, geraniol] | 41 ± 1.2 | 125 ± 5.5 | > 200 | 57 ± 5.1 |  | CC50 at 48 h [3]: > 200 µM
CC(C)=CCC/C(C)=C\CO [Compound 13, nerol] |  |  |  |  |  | CC50 at 48 h [3]: > 200 µM; IC50 ([1]; Trypanosoma cruzi): 58.3 ± 0.3 µM; IC50 ([4]; Leishmania mexicana): > 200 µM; IC50 [2, 13]: 125 µM; IC50 ([2]; read-out: T. cruzi IC50 A1, epimastigotes, A1 strain, MTT): 65.7 ± 3.1 µM; IC50 ([5]; Leishmania mexicana): 106 ± 6 µM
CC1=CC[C@@H](C(C)(C)O)CC1 [Compound 16, α-terpineol] | > 200 | 14 ± 0.2 | 75.57 ± 0.03 | 14 ± 0.2 |  | CC50 at 48 h [3]: 63.4 ± 0.9 µM
CNC[C@H](O)[C@@H](O)[C@H](O)[C@H](O)CO.[O]=[Sb](=[O])[OH] [Glu, Glucantime, reference compound] |  |  |  |  |  | CC50 ([6]; read-out: Cytotoxicity CC50 J774.2, mouse macrophages J774.2, 48 h, MTT): > 273 µM; IC50 [4, 12]: 134 ± 4.3 µM; IC50 ([5]; promastigotes, M379 strain, MTT): > 200 µM
Oc1ccc(/C=C/c2cc(O)cc(O)c2)cc1 [resveratrol] |  |  |  |  |  | IC50 (T. cruzi; resveratrol): 40 µM

Second part, led by results:

IC50 [1, 8] [µM] | IC50 [2, 9] [µM] | IC50 [4, 10] [µM] | IC50 [5, 11] [µM] | Structure (SMILES) | CC50 at 48 h ([3]; J774.2 macrophage cells) [µM] | also measured
> 200 | > 200 |  | 14.2 ± 0.2 | Cc1ccccc1CO [Compound 3, 2-methylbenzyl alcohol] | 64.2 ± 0.2 | cytotoxicity (in words) [6]: high cytotoxicity
119 | > 200 | 125 | 40.1 ± 4.7 | OCc1ccc2ccccc2c1 [Compound 5, 2-naphtalenemethanol] | > 200 | IC50 ([1]; epimastigotes, NINOA strain, MTT): 125 ± 3.2 µM; IC50 [4, 12]: > 200 µM
48.24 ± 0.3 | > 200 | 42.24 ± 0.1 | 21.7 ± 1.7 | OCCc1ccccc1 [Compound 7, phenethyl alcohol] | 89.6 | cytotoxicity (in words) [6]: high cytotoxicity
> 200 | > 200 | > 200 | 52.08 ± 0.5 | COc1ccc(CCO)cc1 [Compound 8, 4-methoxyphenethyl alcohol] | > 200 | trypanocidal activity NINOA strain (in words) ([1]; epimastigotes, NINOA strain): no biological activity
> 200 | 22.12 ± 0.2 | 29.06 ± 0.1 | 12.1 ± 0.2 | OCC=Cc1ccccc1 [Compound 9, cinnamyl alcohol] | 47.35 ± 0.1 | cytotoxicity (in words) [6]: high cytotoxicity; trypanocidal activity NINOA strain (in words) ([1]; epimastigotes, NINOA strain): no biological activity
27.3 ± 1 | > 200 | > 200 | > 200 | CC(C)=CCO [Compound 10, prenol] | > 200 | leishmanicidal activity M379 strain (in words) ([5]; promastigotes, M379 strain): did not have leishmanicidal activity
53.6 ± 3.3 | 21.54 ± 0.2 | > 200 | 71 ± 1 | CC(C)=CCCC(C)CCO (stereo not drawn) [Compound 11, β-citronellol] | > 200 | 
24.5 ± 0.7 | > 200 | > 200 | 81.5 ± 4.7 | CC(C)[C@H]1CC[C@H](C)C[C@@H]1O [Compound 14, l-(-)-menthol] | > 200 | trypanocidal activity against the Tulahuén strain [7]: null trypanocidal activity; trypanocidal activity A1 strain (in words) ([2]; epimastigotes, A1 strain): no biological activity
> 200 | > 200 | > 200 | 34.4 ± 2.8 | C=C(C)[C@H]1CC=C(CO)CC1 [Compound 15] | > 200 | trypanocidal activity A1 strain (in words) ([2]; epimastigotes, A1 strain): no biological activity
> 200 | 10.83 ± 0.1 | 125.4 ± 0.2 | 5.48 ± 0.1 | OC1CCCC1 [Compound 18, cyclopentyl alcohol] | 24.4 ± 3.2 | 
19.3 ± 0.1 | 7.09 ± 0.1 |  |  | CC1CS(=O)(=O)CCN1/N=C/c1ccc([N+](=O)[O-])o1 (stereo not shown) [Nfx, Nifurtimox, reference compound] |  | 
